Measured values taken from ChEMBL document CHEMBL5505990, “Novel aroyl guanidine anti-trypanosomal compounds that exert opposing effects on parasite energy metabolism” (Eur J Med Chem, 2024).
Calls of active or inactive are those of the source. The calls are words filed in the database; no cut-off is given here.

Experiments:
[1] = Selectivity ratio of IC50 for HEK293 cells to IC50 for Trypanosoma brucei brucei; assay type: toxicity; conditions: human, read-out: Ratio IC50
[2] = system: Trypanosoma brucei brucei; experiment: Anti-trypanosomal activity against Trypanosoma brucei brucei; assay type: functional, organism-based
[3] = Cytotoxicity against HEK293 cells; assay type: toxicity, cell-based; conditions: human
[4] = system: Trypanosoma brucei brucei; experiment: Disruption of nucleotide metabolism in bloodstream Trypanosoma brucei brucei 427 assessed as depletion of ATP at 1 uM incubated for 5 hrs; assay type: functional, organism-based
[5] = system: Trypanosoma brucei brucei; experiment: Disruption of nucleotide metabolism in bloodstream Trypanosoma brucei brucei 427 assessed as depletion of GTP at 1 uM incubated for 5 hrs; assay type: functional, organism-based
[6] = system: Trypanosoma brucei brucei; experiment: Disruption of nucleotide metabolism in bloodstream Trypanosoma brucei brucei 427 assessed as depletion of UTP at 1 uM incubated for 5 hrs; assay type: functional, organism-based
[7] = system: Trypanosoma brucei brucei; experiment: Disruption of nucleotide metabolism in bloodstream Trypanosoma brucei brucei 427 assessed as depletion of CTP at 1 uM incubated for 5 hrs; assay type: functional, organism-based
[8] = system: Trypanosoma brucei brucei; experiment: Disruption of nucleotide metabolism in bloodstream Trypanosoma brucei brucei 427 assessed as depletion of deoxy-ATP at 1 uM incubated for 5 hrs; assay type: functional, organism-based
[9] = system: Trypanosoma brucei brucei; experiment: Disruption of nucleotide metabolism in bloodstream Trypanosoma brucei brucei 427 assessed as depletion of deoxy-GTP at 1 uM incubated for 5 hrs; assay type: functional, organism-based
[10] = system: Trypanosoma brucei brucei; experiment: Disruption of nucleotide metabolism in bloodstream Trypanosoma brucei brucei 427 assessed as depletion of deoxy-UTP at 1 uM incubated for 5 hrs; assay type: functional, organism-based
[11] = system: Trypanosoma brucei brucei; experiment: Disruption of nucleotide metabolism in bloodstream Trypanosoma brucei brucei 427 assessed as depletion of deoxy-CTP at 1 uM incubated for 5 hrs; assay type: functional, organism-based
[12] = system: Trypanosoma brucei brucei; experiment: Disruption of nucleotide metabolism in bloodstream Trypanosoma brucei brucei 427 assessed as accumulation of NDP at 1 uM incubated for 5 hrs; assay type: functional, organism-based
[13] = system: Trypanosoma brucei brucei; experiment: Disruption of nucleotide metabolism in bloodstream Trypanosoma brucei brucei 427 assessed as accumulation of NMP at 1 uM incubated for 5 hrs; assay type: functional, organism-based
[14] = system: Trypanosoma brucei brucei; experiment: Disruption of nucleotide metabolism in bloodstream Trypanosoma brucei brucei 427 assessed as accumulation of nucleosides at 1 uM incubated for 5 hrs; assay type: functional, organism-based
[15] = system: Trypanosoma brucei brucei; experiment: Disruption of nucleotide metabolism in bloodstream Trypanosoma brucei brucei 427 assessed as accumulation of purine/pyrimidine base forms at 1 uM incubated for 5 hrs; assay type: functional, organism-based
[16] = system: Trypanosoma brucei brucei; experiment: Induction of glycolysis in bloodstream Trypanosoma brucei brucei 427 assessed as increase in pyruvate level at 1 uM incubated for 5 hrs; assay type: functional
[17] = system: Trypanosoma brucei brucei; experiment: Induction of glycolysis in bloodstream Trypanosoma brucei brucei 427 assessed as increase in glycerol level at 1 uM incubated for 5 hrs; assay type: functional
[18] = system: Trypanosoma brucei brucei; experiment: Induction of glycolysis in bloodstream Trypanosoma brucei brucei 427 assessed as increase in succinate level at 1 uM incubated for 5 hrs; assay type: functional
[19] = system: Trypanosoma brucei brucei; experiment: Downregulation of 6-phosphogluconate level in bloodstream Trypanosoma brucei brucei 427 assessed as increase in pyruvate level at 1 uM incubated for 5 hrs; assay type: functional
[20] = system: Trypanosoma brucei brucei; experiment: Downregulation of NADPH level in bloodstream Trypanosoma brucei brucei 427 assessed as increase in pyruvate level at 1 uM incubated for 5 hrs; assay type: functional
[21] = system: Trypanosoma brucei brucei; experiment: Upregulation of carnitine to acetyl-carnitine ratio in bloodstream Trypanosoma brucei brucei 427 assessed as increase in pyruvate level at 1 uM incubated for 5 hrs; assay type: functional
[22] = system: Trypanosoma brucei brucei; experiment: Upregulation of glycolytic flux in bloodstream Trypanosoma brucei brucei 427 assessed as increase in pyruvate level at 1 uM incubated for 5 hrs; assay type: functional
[23] = system: Trypanosoma brucei brucei; experiment: Effect on free CoA level in bloodstream Trypanosoma brucei brucei 427 assessed as increase in pyruvate level at 1 uM incubated for 5 hrs; assay type: functional
[24] = system: Trypanosoma brucei brucei; experiment: Effect on free carnitine level in bloodstream Trypanosoma brucei brucei 427 assessed as increase in pyruvate level at 1 uM incubated for 5 hrs; assay type: functional
[25] = system: Trypanosoma brucei brucei; experiment: Effect on acetyl-CoA level in bloodstream Trypanosoma brucei brucei 427 assessed as increase in pyruvate level at 1 uM incubated for 5 hrs; assay type: functional
[26] = system: Trypanosoma brucei brucei; experiment: Effect on palmitoyl-CoA level in bloodstream Trypanosoma brucei brucei 427 assessed as increase in pyruvate level at 1 uM incubated for 5 hrs; assay type: functional
[27] = system: Trypanosoma brucei brucei; experiment: Effect on stearoyl-CoA level in bloodstream Trypanosoma brucei brucei 427 assessed as increase in pyruvate level at 1 uM incubated for 5 hrs; assay type: functional
[28] = system: Trypanosoma brucei brucei; experiment: Effect on acetyl-carnitine level in bloodstream Trypanosoma brucei brucei 427 assessed as increase in pyruvate level at 1 uM incubated for 5 hrs; assay type: functional
[29] = Cytotoxicity against HEK293 cells assessed as inhibition of cell viability at 83 uM relative to control; assay type: toxicity, cell-based; conditions: human, read-out: INH
[30] = system: Trypanosoma brucei brucei; experiment: Anti-trypanosomal activity against Trypanosoma brucei brucei at 10 uM relative to control; assay type: functional
[31] = system: Trypanosoma brucei brucei; experiment: Disruption of nucleotide metabolism in bloodstream Trypanosoma brucei brucei 427 assessed as depletion of NTP at 1 uM incubated for 5 hrs; assay type: functional, organism-based

CCc1ccccc1/N=C(\NCCN1CCOCC1)NC(=O)c1cccc(F)c1
selectivity ratio [1]: > 52 | IC50 [2]: 1.6 µM | IC50 [3]: > 83 µM

COc1ccccc1/N=C(\NCCN1CCOCC1)NC(=O)c1ccccc1
IC50 [2]: > 10 µM

CCc1ccccc1/N=C(\NCCN1CCOCC1)NC(=O)c1cccc(C)c1
selectivity ratio [1]: > 64 | IC50 [2]: 1.3 µM | IC50 [3]: > 83 µM

CCc1ccccc1/N=C(\NCCN1CCOCC1)NC(=O)c1ccccc1Cl
IC50 [2]: > 10 µM

O=C(N/C(=N/c1ccccc1Br)NCCN1CCOCC1)c1ccccc1
selectivity ratio [1]: > 19 | IC50 [2]: 4.2 µM | IC50 [3]: > 83 µM | Activity [4]: Active | Activity [5]: Active | Activity [6]: Active | Activity [7]: Active | Activity [8]: Active | Activity [9]: Active | Activity [10]: Active | Activity [11]: Active | Activity [12]: Active | Activity [13]: Active | Activity [14]: Active | Activity [15]: Active | Activity [16]: Active | Activity [17]: Active | Activity [18]: Active | Activity [19]: Active | Activity [20]: Active | Activity [21]: Active | Activity [22]: Active | Activity [23]: Active | Activity [24]: Active | Activity [25]: inactive | Activity [26]: Active | Activity [27]: Active | Activity [28]: Active

O=C(N/C(=N/c1ccccc1F)NCCN1CCOCC1)c1ccccc1
IC50 [2]: > 10 µM

CCc1ccccc1/N=C(\NCCN1CCOCC1)NC(=O)c1ccc(C(C)C)cc1
IC50 [2]: 10 µM | cytotoxicity at 83 µM [29]: 52%

CCc1ccccc1/N=C(\NCCN1CCOCC1)NC(=O)c1ccc(F)c(F)c1
IC50 [2]: 1.8 µM | cytotoxicity at 83 µM [29]: 86% | Activity [4]: Active | Activity [5]: Active | Activity [6]: Active | Activity [7]: Active | Activity [8]: Active | Activity [9]: Active | Activity [10]: Active | Activity [11]: Active | Activity [16]: Active | Activity [17]: Active | Activity [18]: Active | Activity [19]: Active | Activity [20]: Active | Activity [21]: Active | Activity [22]: Active | Activity [23]: Active | Activity [24]: Active | Activity [25]: inactive | Activity [26]: Active | Activity [27]: Active | Activity [28]: Active

CCc1ccccc1/N=C(\NCCN1CCCC1)NC(=O)c1ccccc1
IC50 [2]: > 10 µM

CCc1ccccc1/N=C(\NCCN1CCOCC1)NC(=O)c1ccc(OC)cc1
selectivity ratio [1]: > 8.8 | IC50 [2]: 9.4 µM | IC50 [3]: > 83 µM

CCc1ccccc1/N=C(\NCCN1CCOCC1)NC(=O)c1ccc(F)c(C)c1
IC50 [2]: 2.4 µM | cytotoxicity at 83 µM [29]: 101%

CCc1ccccc1/N=C(\NCCN1CCOCC1)NC(=O)c1cccc(OC)c1
selectivity ratio [1]: > 52 | IC50 [2]: 1.6 µM | IC50 [3]: > 83 µM

CCc1ccccc1/N=C(\NCCN1CCOCC1)NC(=O)c1cccc(O)c1
selectivity ratio [1]: 1 | IC50 [2]: > 83 µM | IC50 [3]: > 83 µM

CCc1ccccc1/N=C(\NCCN1CCOCC1)NC(=O)c1ccc(Cl)cc1
selectivity ratio [1]: > 52 | IC50 [2]: 1.6 µM | IC50 [3]: > 83 µM

CCc1ccccc1/N=C(\NCCCN1CCOCC1)NC(=O)c1ccccc1
IC50 [2]: > 10 µM

O=C(N/C(=N/c1ccccc1C(F)(F)F)NCCN1CCOCC1)c1ccccc1
inhibition at 10 µM [30]: 59% | cytotoxicity at 83 µM [29]: 63%

CCc1ccccc1/N=C(\NCCN1CCOCC1)NC(=O)c1ccc(Br)cc1
selectivity ratio [1]: > 9.5 | IC50 [2]: 8.7 µM | IC50 [3]: > 83 µM

N#Cc1ccccc1/N=C(\NCCN1CCOCC1)NC(=O)c1ccccc1
IC50 [2]: > 10 µM

CCc1ccccc1/N=C(\NCCN1CCOCC1)NC(=O)c1ccccc1Br
IC50 [2]: > 10 µM

CCc1ccccc1/N=C(\NCCN1CCOCC1)NC(=O)c1ccccc1C
IC50 [2]: > 10 µM

CCc1ccccc1/N=C(\NCCN1CCOCC1)NC(=O)c1cccc(C(C)=O)c1
selectivity ratio [1]: 1 | IC50 [2]: > 83 µM | IC50 [3]: > 83 µM

CCc1ccccc1/N=C(\NCCN1CCOCC1)NC(=O)c1ccc(F)c(OC)c1
IC50 [2]: 0.75 µM | cytotoxicity at 83 µM [29]: 94%

CCc1ccccc1/N=C(\NCCN1CCOCC1)NC(=O)c1ccc(F)cc1
selectivity ratio [1]: 46 | IC50 [2]: 1.8 µM | IC50 [3]: > 83 µM | Activity [12]: inactive | Activity [13]: inactive | Activity [14]: inactive | Activity [15]: inactive | Activity [31]: inactive | Activity [16]: inactive | Activity [17]: inactive | Activity [18]: inactive | Activity [19]: inactive | Activity [20]: inactive | Activity [21]: inactive | Activity [22]: inactive | Activity [23]: inactive | Activity [24]: inactive | Activity [25]: Active | Activity [26]: inactive | Activity [27]: inactive | Activity [28]: inactive

CC(C)c1ccccc1/N=C(\NCCN1CCOCC1)NC(=O)c1ccccc1
inhibition at 10 µM [30]: 75% | cytotoxicity at 83 µM [29]: 63%

CCc1ccccc1/N=C(\NCCN1CCN(C)CC1)NC(=O)c1ccccc1
IC50 [2]: > 10 µM

CCCc1ccccc1/N=C(\NCCN1CCOCC1)NC(=O)c1ccccc1
inhibition at 10 µM [30]: 72% | cytotoxicity at 83 µM [29]: 58%

CCc1ccccc1/N=C(\NCCN1CCOCC1)NC(=O)c1ccccc1OC
IC50 [2]: > 10 µM

CCc1ccccc1/N=C(\NCCN1CCOCC1)NC(=O)c1ccccc1F
selectivity ratio [1]: 1 | IC50 [2]: 7 µM | IC50 [3]: > 10 µM

CCc1ccccc1/N=C(\NCCN1CCCCC1)NC(=O)c1ccccc1
IC50 [2]: > 10 µM

O=C(N/C(=N/c1ccccc1)NCCN1CCOCC1)c1ccccc1
IC50 [2]: > 10 µM

CCc1ccccc1/N=C(\NCCN(C)C)NC(=O)c1ccccc1
IC50 [2]: > 10 µM

O=C(N/C(=N/c1ccccc1Cl)NCCN1CCOCC1)c1ccccc1
selectivity ratio [1]: > 11 | IC50 [2]: 7.5 µM | IC50 [3]: > 83 µM

CCCc1ccc(C(=O)N/C(=N/c2ccccc2CC)NCCN2CCOCC2)cc1
selectivity ratio [1]: > 9 | IC50 [2]: 9 µM | IC50 [3]: > 83 µM
